Target: Cbl-b (36-427 aa truncated form, N-terminus Avi-tag) (Homo sapiens (Human), UniProt Q13191)
Assay: Cbl-b binding: TR-FRET displacement of BODIPY-FL probe
Protocol: Compounds were assessed for binding activity to Cbl-b by their ability to compete with and displace a probe comprised of BODIPY-FL fluorophore conjugated to a Cbl-b inhibitor (see Example 54 in WO2020264398). In the assay, a 36-427 aa truncated form of Cbl-b with an N-terminus Avi-tag was incubated 20 mM HEPES pH 7.5, 150 mM NaCl, 0.01% Triton X-100, 0.1% BSA, 0.5 mM TCEP buffer with streptavidin-terbium (Cisbio). After one hour of incubation at room temperature, 1 uM each of fluorescent probe and compound were combined with the reaction mixture. Compounds with Cbl-b binding activity competitively displace the fluorophore tagged inhibitor thereby disrupting the FRET signal from the terbium-BODIPY-FL complex. The reaction mixtures were incubated for one additional hour at room temperature to allow for competition between inhibitor and candidate compounds to occur. The time resolved FRET (TR-FRET) signal was then read at 520/620 […] (excitation/emission) using a Spectramax M5e plate reader (Molecular Devices) to measure probe displacement. Compounds with Cbl-b binding activity had decreased FRET signal owing to disruption of the terbium-BODIPY-FL FRET complex. Standard methods in PRISM were used to calculate the compound IC50 values from the experimental data.

Sequence of Cbl-b (36-427 aa truncated form, N-terminus Avi-tag) (Q13191 36-427): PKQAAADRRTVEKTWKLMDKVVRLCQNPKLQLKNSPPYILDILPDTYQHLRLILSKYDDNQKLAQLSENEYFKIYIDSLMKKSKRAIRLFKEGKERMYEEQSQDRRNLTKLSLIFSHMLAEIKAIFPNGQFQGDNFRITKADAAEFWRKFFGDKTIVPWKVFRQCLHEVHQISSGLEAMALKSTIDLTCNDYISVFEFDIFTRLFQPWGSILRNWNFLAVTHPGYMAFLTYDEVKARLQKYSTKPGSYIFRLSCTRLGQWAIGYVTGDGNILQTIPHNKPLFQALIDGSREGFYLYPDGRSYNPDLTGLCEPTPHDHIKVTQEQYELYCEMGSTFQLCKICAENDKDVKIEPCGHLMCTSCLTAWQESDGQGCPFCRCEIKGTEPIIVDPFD

IC50 [nM]	SMILES
100 to 1000	CCNc1cc(C2(Cc3nncn3C)COC2)cc(N2Cc3c(cc(CN4CCC[C@H](C)C4)cc3[S+](C)[O-])C2=O)n1 (stereo partly drawn) [Compound 180, 2-[6-(ethylamino)-4-{3-[(4-methyl-1,2,4-triazol-3-yl)methyl]oxetan-3-yl}pyridin-2-yl]-4-methanesulfinyl-6-{[(3S)-3-methylpiperidin-1-yl]methyl}-3H-isoindol-1-one]
100 to 1000	CCNc1cc(C2(Cc3nncn3C)COC2)cc(N2Cc3c(cc(CN4CCC[C@H](C)C4)cc3S(C)(=O)=O)C2=O)n1 [Compound 179, 2-[6-(ethylamino)-4-{3-[(4-methyl-1,2,4-triazol-3-yl)methyl]oxetan-3-yl}pyridin-2-yl]-4-methanesulfonyl-6-{[(3S)-3-methylpiperidin-1-yl]methyl}-3H-isoindol-1-one; formic acid]
5.01 to 20	Cn1cnnc1CC1(c2cc(NCCC#N)nc(N3Cc4c(cc(CN5CC6(CCC6O)C5)cc4C(F)(F)F)C3=O)c2)COC1 (centres unmarked) [Compound 189, 3-((6-(6-((5-hydroxy-2-azaspiro[3.3]heptan-2-yl)methyl)-1-oxo-4-(trifluoromethyl)isoindolin-2-yl)-4-(3-((4-methyl-4H-1,2,4-triazol-3-yl)methyl)oxetan-3-yl)pyridin-2-yl)amino)propanenitrile; trifluoroacetic acid]
20 to 100	Cc1cn(CCNc2cc(C3(Cc4nncn4C)COC3)cc(N3Cc4c(cc(CN5CCC[C@H](C)C5)cc4C(F)(F)F)C3=O)n2)nn1 [Compound 129, (S)-2-(6-((2-(4-methyl-1H-1,2,3-triazol-1-yl)ethyl)amino)-4-(3-((4-methyl-4H-1,2,4-triazol-3-yl)methyl)oxetan-3-yl)pyridin-2-yl)-6-((3-methylpiperidin-1-yl)methyl)-4-(trifluoromethyl)isoindolin-1-one]
20 to 100	C[C@H](Cc1nncn1C)c1cccc(NC(=O)c2ccc(C=O)c(C3CC3)n2)c1 [Compound 156, 6-cyclopropyl-5-formyl-N-{3-[(2R)-1-(4-methyl-1,2,4-triazol-3-yl)propan-2-yl]phenyl}pyridine-2-carboxamide]
20 to 100	C[C@H]1CCCN(Cc2cc3c(c(C(F)(F)F)c2)CN(c2cc(C4(Cc5nncn5C)COC4)cc(N4CCN(C(=O)Cc5nnn[nH]5)CC4)n2)C3=O)C1 [Compound 131, (S)-2-(6-(4-(2-(1H-tetrazol-5-yl)acetyl)piperazin-1-yl)-4-(3-((4-methyl-4H-1,2,4-triazol-3-yl)methyl)oxetan-3-yl)pyridin-2-yl)-6-((3-methylpiperidin-1-yl)methyl)-4-(trifluoromethyl)isoindolin-1-one]
100 to 1000	CSC(C)(C)CNc1cc(C2(Cc3nncn3C)COC2)cc(N2Cc3c(cc(CN4CCC[C@H](C)C4)cc3C(F)(F)F)C2=O)n1 [Compound 105, 2-(4-{3-[(4-methyl-1,2,4-triazol-3-yl)methyl]oxetan-3-yl}-6-{[2-methyl-2-(methylsulfanyl)propyl]amino}pyridin-2-yl)-6-{[(3S)-3-methylpiperidin-1-yl]methyl}-4-(trifluoromethyl)-3H-isoindol-1-one; formic acid]
1 to 5	Cn1cnnc1CC1(c2cc(NCCC#N)nc(N3Cc4c(cc(CN5CCC6(CC5)CC6CO)cc4C(F)(F)F)C3=O)c2)COC1 (centres unmarked) [Compound 160, 3-{[6-(6-{[1-(hydroxymethyl)-6-azaspiro[2.5]octan-6-yl]methyl}-1-oxo-4-(trifluoromethyl)-3H-isoindol-2-yl)-4-{3-[(4-methyl-1,2,4-triazol-3-yl)methyl]oxetan-3-yl}pyridin-2-yl]amino}propanenitrile]
5.01 to 20	CCSc1cc(C2(Cc3nncn3C)COC2)cc(N2Cc3c(cc(CN4CCC[C@H](C)C4)cc3-c3nnn[nH]3)C2=O)n1 [Compound 167, 2-[6-(ethylsulfanyl)-4-{3-[(4-methyl-1,2,4-triazol-3-yl)methyl]oxetan-3-yl}pyridin-2-yl]-6-{[(3S)-3-methylpiperidin-1-yl]methyl}-4-(1H-1,2,3,4-tetrazol-5-yl)-3H-isoindol-1-one]
100 to 1000	C#CCOCC(c1cc2c(c(C(F)(F)F)c1)CN(c1cccc(C3(c4nncn4C)CC(C)C3)c1)C2=O)N1CCC[C@H](C)C1 (stereo partly drawn) [Compound 151, 6-{1-[(3S)-3-methylpiperidin-1-yl]-2-(prop-2-yn-1-yloxy)ethyl}-2-{3-[(1r,3s)-3-methyl-1-(4-methyl-1,2,4-triazol-3-yl)cyclobutyl]phenyl}-4-(trifluoromethyl)-3H-isoindol-1-one]
5.01 to 20	Cn1cnnc1CC1(c2cc(NCCC#N)nc(N3Cc4c(cc(CN5CCN(c6ccccc6O)CC5)cc4C(F)(F)F)C3=O)c2)COC1 [Compound 184, 3-((6-(6-((4-(2-hydroxyphenyl)piperazin-1-yl)methyl)-1-oxo-4-(trifluoromethyl)isoindolin-2-yl)-4-(3-((4-methyl-4H-1,2,4-triazol-3-yl)methyl)oxetan-3-yl)pyridin-2-yl)amino)propanenitrile; trifluoroacetic acid]
5.01 to 20	CCSc1cc(C2(Cc3nncn3C)COC2)cc(N2Cc3c(C(N)=O)cc(CN4CCC[C@H](C)C4)cc3C2=O)n1 [Compound 145, 2-[6-(ethylsulfanyl)-4-{3-[(4-methyl-1,2,4-triazol-3-yl)methyl]oxetan-3-yl}pyridin-2-yl]-6-{[(3S)-3-methylpiperidin-1-yl]methyl}-1-oxo-3H-isoindole-4-carboxamide]
1 to 5	CSc1cc(CN2CCC[C@H](C)C2)cc2c1CN(c1cc(C3(Cc4nncn4C)COC3)cc(NCCN=[N+]=[N-])n1)C2=O [Compound 158, 2-{6-[(2-azidoethyl)amino]-4-{3-[(4-methyl-1,2,4-triazol-3-yl)methyl]oxetan-3-yl}pyridin-2-yl}-6-{[(3S)-3-methylpiperidin-1-yl]methyl}-4-(methylsulfanyl)-3H-isoindol-1-one; trifluoroacetic acid]
1 to 5	C[C@H]1CCCN(Cc2cc3c(c(C(F)(F)F)c2)CN(c2cc(C4(Cc5nncn5C)COC4)cc(NCCCC#N)n2)C3=O)C1 [Compound 143, 4-[(4-{3-[(4-methyl-1,2,4-triazol-3-yl)methyl]oxetan-3-yl}-6-(6-{[(3S)-3-methylpiperidin-1-yl]methyl}-1-oxo-4-(trifluoromethyl)-3H-isoindol-2-yl)pyridin-2-yl)amino]butanenitrile; trifluoroacetic acid]

— patent US20250304563A1, “ACTIVATORS OF EFFECTOR T CELLS” (Orum Therapeutics, Inc., priority 2022, published 2025)
